Laboratory results: patent publication US10668067B2, “Pyridine sulfonamides” (AMGEN INC., priority 2016, dated 2020)

target: human Nav1.7 (Homo sapiens (Human), UniProt Q15858); assay: Nav 1.7 In Vitro PX Assay (PatchXpress whole cell voltage clamp); format: cell-based; conditions: in-vitro Nav 1.7 PX data
Procedure: HEK 293 cells stably transfected with human Nav1.7 were recorded in whole cell voltage clamp mode with the PatchXpress automated electrophysiology system (Molecular Devices, LLC, Sunnyvale, Calif.). Compound effects were measured on a partially inactivated state of the sodium channel. Cells were clamped to a holding potential yielding 20 to 50% inactivation. To elicit sodium current, channels were activated by pulsing to −10 mV for 20 msec. This voltage protocol was repeated at a rate of 0.1 Hz throughout the experiment. A single concentration of test compound was applied to cells for a duration of 3 minutes. Peak sodium current was measured at the end of the compound addition period to determine percent inhibition. Three to five cells were tested per concentration, and IC50 curves were fitted to percent inhibition as a function of concentration.

human Nav1.7, sequence (Q15858 whole entry): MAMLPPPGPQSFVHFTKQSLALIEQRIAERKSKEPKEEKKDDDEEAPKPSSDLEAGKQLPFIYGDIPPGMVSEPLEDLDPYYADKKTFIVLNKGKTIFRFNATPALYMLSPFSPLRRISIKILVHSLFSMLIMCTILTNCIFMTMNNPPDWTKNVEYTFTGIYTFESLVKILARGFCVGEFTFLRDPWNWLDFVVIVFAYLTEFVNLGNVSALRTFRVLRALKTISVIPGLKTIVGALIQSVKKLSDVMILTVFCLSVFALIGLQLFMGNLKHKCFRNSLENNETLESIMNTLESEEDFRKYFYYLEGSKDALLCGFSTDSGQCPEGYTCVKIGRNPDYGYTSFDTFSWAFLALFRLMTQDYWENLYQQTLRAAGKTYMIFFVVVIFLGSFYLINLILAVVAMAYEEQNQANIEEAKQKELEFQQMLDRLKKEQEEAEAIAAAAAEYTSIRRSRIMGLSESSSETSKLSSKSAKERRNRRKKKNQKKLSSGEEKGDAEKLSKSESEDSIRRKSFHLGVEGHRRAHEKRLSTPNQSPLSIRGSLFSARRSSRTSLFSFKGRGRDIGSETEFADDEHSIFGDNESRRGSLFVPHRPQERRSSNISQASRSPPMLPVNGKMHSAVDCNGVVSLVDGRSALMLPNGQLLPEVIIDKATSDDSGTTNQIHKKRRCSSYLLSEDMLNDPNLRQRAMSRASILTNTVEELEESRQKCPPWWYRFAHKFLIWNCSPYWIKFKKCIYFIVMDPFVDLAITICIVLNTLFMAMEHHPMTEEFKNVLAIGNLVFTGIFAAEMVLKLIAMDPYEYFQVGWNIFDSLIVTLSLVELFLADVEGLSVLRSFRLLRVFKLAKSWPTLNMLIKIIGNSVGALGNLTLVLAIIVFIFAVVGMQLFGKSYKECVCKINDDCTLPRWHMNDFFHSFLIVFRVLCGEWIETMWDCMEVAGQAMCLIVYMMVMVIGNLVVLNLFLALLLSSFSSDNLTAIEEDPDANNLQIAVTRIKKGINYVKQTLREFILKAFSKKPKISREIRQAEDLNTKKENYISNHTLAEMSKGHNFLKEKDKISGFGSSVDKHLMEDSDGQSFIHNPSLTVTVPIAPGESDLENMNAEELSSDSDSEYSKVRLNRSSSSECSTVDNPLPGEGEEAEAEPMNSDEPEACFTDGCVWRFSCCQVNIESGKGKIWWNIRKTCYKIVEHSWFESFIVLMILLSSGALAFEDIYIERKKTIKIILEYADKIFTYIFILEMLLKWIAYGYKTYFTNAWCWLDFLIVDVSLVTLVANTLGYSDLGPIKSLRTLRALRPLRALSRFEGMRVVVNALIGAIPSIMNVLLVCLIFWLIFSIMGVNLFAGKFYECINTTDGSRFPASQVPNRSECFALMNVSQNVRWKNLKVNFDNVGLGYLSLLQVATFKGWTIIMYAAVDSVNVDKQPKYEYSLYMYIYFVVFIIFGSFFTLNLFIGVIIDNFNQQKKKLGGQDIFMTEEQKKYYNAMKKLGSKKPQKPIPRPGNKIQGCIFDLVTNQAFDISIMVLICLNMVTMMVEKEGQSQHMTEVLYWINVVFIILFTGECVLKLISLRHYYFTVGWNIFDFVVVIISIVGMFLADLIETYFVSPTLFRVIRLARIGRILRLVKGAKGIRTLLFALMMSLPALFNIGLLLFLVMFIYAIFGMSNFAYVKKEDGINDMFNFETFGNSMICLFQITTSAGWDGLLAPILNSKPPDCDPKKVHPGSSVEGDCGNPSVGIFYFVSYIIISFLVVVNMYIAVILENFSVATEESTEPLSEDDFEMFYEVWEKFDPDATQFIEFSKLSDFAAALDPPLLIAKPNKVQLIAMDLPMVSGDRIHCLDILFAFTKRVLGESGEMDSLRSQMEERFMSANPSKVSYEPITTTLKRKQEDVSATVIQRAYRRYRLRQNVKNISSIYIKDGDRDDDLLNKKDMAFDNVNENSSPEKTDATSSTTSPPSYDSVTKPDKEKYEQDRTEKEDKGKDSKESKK

Structure (SMILES)	IC50 [nM]
CNC(=O)N(c1ccc(S(=O)(=O)Nc2ccon2)cn1)c1cc(F)c(-c2ccc(Cl)c(C)c2)cc1OC [Example 1-1, 6-((4′-chloro-2-fluoro-5-methoxy-3′-methyl-4-biphenylyl)(methylcarbamoyl)amino)-N-3-isoxazolyl-3-pyridinesulfonamide]	57
CNC(=O)N(c1ccc(S(=O)(=O)Nc2cccnn2)cn1)c1cc(F)c(-c2ccc(Cl)c(C)c2)cc1OC [Example 1-2, 6-((4′-chloro-2-fluoro-5-methoxy-3′-methyl-4-biphenylyl)(methylcarbamoyl)amino)-N-3-pyridazinyl-3-pyridinesulfonamide]	106
CNC(=O)N(c1ccc(S(=O)(=O)Nc2cccnn2)cn1)c1cc(F)c(-c2cccc(C(F)(F)F)c2)cc1OC [Example 1-3, 6-((2-fluoro-5-methoxy-3′-(trifluoromethyl)-4-biphenylyl)(methylcarbamoyl)amino)-N-3-pyridazinyl-3-pyridinesulfonamide]	40
CNC(=O)N(c1ccc(S(=O)(=O)Nc2ccon2)cn1)c1cc(F)c(-c2cccc(C(F)(F)F)c2)cc1OC [Example 1-4, 6-((2-fluoro-5-methoxy-3′-(trifluoromethyl)-4-biphenylyl)(methylcarbamoyl)amino)-N-3-isoxazolyl-3-pyridinesulfonamide]	33
CNC(=O)N(c1ccc(S(=O)(=O)Nc2ccon2)cn1)c1cc(F)c(-c2cc(F)cc(Cl)c2)cc1OC [Example 1-5, 6-((3′-chloro-2,5′-difluoro-5-methoxy-4-biphenylyl)(methylcarbamoyl)amino)-N-3-isoxazolyl-3-pyridinesulfonamide]	92
CNC(=O)N(c1ccc(S(=O)(=O)Nc2ccon2)cn1)c1cc(F)c(-c2cc(Cl)cc(OC)c2)cc1OC [Example 1-6, 6-((3′-chloro-2-fluoro-5,5′-dimethoxy-4-biphenylyl)(methylcarbamoyl)amino)-N-3-isoxazolyl-3-pyridinesulfonamide]	51
CNC(=O)N(c1ccc(S(=O)(=O)Nc2ccon2)cn1)c1cc(F)c(-c2cc(OC)cc(OC(F)(F)F)c2)cc1OC [Example 1-7, 6-((2-fluoro-3′,5-dimethoxy-5′-(trifluoromethoxy)-4-biphenylyl)(methylcarbamoyl)amino)-N-3-isoxazolyl-3-pyridinesulfonamide]	18
CNC(=O)N(c1ccc(S(=O)(=O)Nc2ccon2)cn1)c1cc(F)c(-c2cccc(OC)c2)cc1OC [Example 1-8, 6-((2-fluoro-3′,5-dimethoxy-4-biphenylyl)(methylcarbamoyl)amino)-N-3-isoxazolyl-3-pyridinesulfonamide]	206
CNC(=O)N(c1ccc(S(=O)(=O)Nc2ccon2)cn1)c1cc(F)c(-c2cc(OC)cc(C(F)(F)F)c2)cc1OC [Example 1-9, 6-((2-fluoro-3′,5-dimethoxy-5′-(trifluoromethyl)-4-biphenylyl)(methylcarbamoyl)amino)-N-3-isoxazolyl-3-pyridinesulfonamide]	18
CNC(=O)N(c1ccc(S(=O)(=O)Nc2ccon2)cn1)c1cc(F)c(-c2ccc(Cl)c(Cl)c2)cc1OC [Example 1-10, 6-((3′,4′-dichloro-2-fluoro-5-methoxy-4-biphenylyl)(methylcarbamoyl)amino)-N-3-isoxazolyl-3-pyridinesulfonamide]	9
CNC(=O)N(c1ccc(S(=O)(=O)Nc2ccon2)cn1)c1cc(F)c(-c2ccc(Cl)c(C(F)(F)F)c2)cc1OC [Example 1-11, 6-((4′-chloro-2-fluoro-5-methoxy-3′-(trifluoromethyl)-4-biphenylyl)(methylcarbamoyl)amino)-N-3-isoxazolyl-3-pyridinesulfonamide]	14
CNC(=O)N(c1ccc(S(=O)(=O)Nc2ccon2)cn1)c1cc(F)c(-c2cccc(OCC(F)(F)F)c2)cc1OC [Example 1-12, 6-((2-fluoro-5-methoxy-3′-(2,2,2-trifluoroethoxy)-4-biphenylyl)(methylcarbamoyl)amino)-N-3-isoxazolyl-3-pyridinesulfonamide]	85
CNC(=O)N(c1ccc(S(=O)(=O)Nc2ccon2)cn1)c1cc(F)c(-c2cccc(C3CC3)c2)cc1OC [Example 1-13, 6-((3′-cyclopropyl-2-fluoro-5-methoxy-4-biphenylyl)(methylcarbamoyl)amino)-N-3-isoxazolyl-3-pyridinesulfonamide]	46
CNC(=O)N(c1ccc(S(=O)(=O)Nc2ccon2)cn1)c1cc(F)c(-c2cccc(OC(F)(F)F)c2)cc1OC [Example 1-14, 6-((2-fluoro-5-methoxy-3′-(trifluoromethoxy)-4-biphenylyl)(methylcarbamoyl)amino)-N-3-isoxazolyl-3-pyridinesulfonamide]	17
CNC(=O)N(c1ccc(S(=O)(=O)Nc2ccon2)cn1)c1cc(F)c(-c2ccc(C)c(F)c2)cc1OC [Example 1-15, 6-((2,3′-difluoro-5-methoxy-4′-methyl-4-biphenylyl)(methylcarbamoyl)amino)-N-3-isoxazolyl-3-pyridinesulfonamide]	124

Continued, values first:

IC50 [nM]	Structure (SMILES)
61	CNC(=O)N(c1ccc(S(=O)(=O)Nc2ccon2)cn1)c1cc(F)c(-c2ccc(F)c(C)c2)cc1OC [Example 1-16, 6-((2,4′-difluoro-5-methoxy-3′-methyl-4-biphenylyl)(methylcarbamoyl)amino)-N-3-isoxazolyl-3-pyridinesulfonamide]
31	CNC(=O)N(c1ccc(S(=O)(=O)Nc2ccon2)cn1)c1cc(F)c(-c2ccc(C)c(Cl)c2)cc1OC [Example 1-17, 6-((3′-chloro-2-fluoro-5-methoxy-4′-methyl-4-biphenylyl)(methylcarbamoyl)amino)-N-3-isoxazolyl-3-pyridinesulfonamide]
146	CNC(=O)N(c1ccc(S(=O)(=O)Nc2ccon2)cn1)c1cc(F)c(-c2cc(C)cc(F)c2)cc1OC [Example 1-18, 6-((2,3′-difluoro-5-methoxy-5′-methyl-4-biphenylyl)(methylcarbamoyl)amino)-N-3-isoxazolyl-3-pyridinesulfonamide]
47	CNC(=O)N(c1ccc(S(=O)(=O)Nc2ccon2)cn1)c1cc(F)c(-c2cc(C)cc(Cl)c2)cc1OC [Example 1-19, 6-((3′-chloro-2-fluoro-5-methoxy-5′-methyl-4-biphenylyl)(methylcarbamoyl)amino)-N-3-isoxazolyl-3-pyridinesulfonamide]
50	CNC(=O)N(c1ccc(S(=O)(=O)Nc2ccon2)cn1)c1cc(F)c(-c2ccc(Cl)c(F)c2)cc1OC [Example 1-20, 6-((4′-chloro-2,3′-difluoro-5-methoxy-4-biphenylyl)(methylcarbamoyl)amino)-N-3-isoxazolyl-3-pyridinesulfonamide]
37	CNC(=O)N(c1ccc(S(=O)(=O)Nc2ccon2)cn1)c1cc(F)c(-c2ccc(F)c(Cl)c2)cc1OC [Example 1-21, 6-((3′-chloro-2,4′-difluoro-5-methoxy-4-biphenylyl)(methylcarbamoyl)amino)-N-3-isoxazolyl-3-pyridinesulfonamide]
199	CNC(=O)N(c1ccc(S(=O)(=O)Nc2ccon2)cn1)c1cc(F)c(-c2ccc(F)c(F)c2)cc1OC [Example 1-22, N-3-isoxazolyl-6-((methylcarbamoyl)(2,3′,4′-trifluoro-5-methoxy-4-biphenylyl)amino)-3-pyridinesulfonamide]
